Measurements: patent publication US20260115139A1, “Amino Acid-Containing Ionizable Lipids for the Delivery of Therapeutic Agents” (NanoVation Therapeutics Inc., priority 2022, published 2026)

Test system: liver
Assay: In vivo delivery of luciferase mRNA LNPs, luminescence in liver
Conditions: LNP 50/10/38.5/1.5 mol % ionizable lipid/DSPC/chol/PEG-DMG, N/P=6, luciferase mRNA 1 mg/kg intravenous, CD-1 mice, 4 hours post-injection
Experimental: The mRNA dose was 1 mg/kg.

SMILES | luminescence intensity per mg liver compared with the MC3 benchmark (lipid 1)
CCCCCCCCC(CCCCCC)C(=O)OCCCCCC(CCCCCOC(=O)CN(C)C(=O)C(CCCCCC)CCCCCCCC)OC(=O)CCCN(C)C (stereo not shown) [lipid 6, 6-((4-(Dimethylamino)butanoyl)oxy)-11-((N-(2-hexyldecanoyl)-N-methylglycyl)oxy)-undecyl 2-hexyldecanoate] | higher
CCCCCCCCC(CCCCCC)C(=O)N(C)CC(=O)OCCCCCC1(CCCCCOC(=O)CN(C)C(=O)C(CCCCCC)CCCCCCCC)OCC(CCOC(=O)CCCN(C)C)O1 (stereo not shown) [lipid 17, (4-(2-((4-(dimethylamino)butanoyl)oxy)ethyl)-1,3-dioxolane-2,2-diyl)bis(pentane-5,1-diyl) bis(2-(2-hexyl-N-methyldecanamido)acetate)] | higher
CCCCCCCCC(CCCCCC)C(=O)N(C)CC(=O)OCCCCCC(CCCCCOC(=O)CN(C)C(=O)C(CCCCCC)CCCCCCCC)OC(=O)CCCC(=O)OCCCN(C)C (stereo not shown) [lipid 19, 9,31-dihexyl-11,29-dimethyl-10,13,27,30-tetraoxo-14,26-dioxa-11,29-diazanonatriacon-tan-20-yl (3-(dimethylamino)propyl) glutarate] | higher
CCCCCCCCC(CCCCCC)C(=O)OCCCCCC(CCCCCOC(=O)CN(C)C(=O)C(CCCCCC)CCCCCCCC)N(C)CCCO (stereo not shown) [lipid 23, 11-((N-(2-Hexyldecanoyl)-N-methylglycyl)oxy)-6-((3-hydroxypropyl)(methyl)amino)-undecyl 2-hexyldecanoate] | higher
CCCCCCCCC(CCCCCC)C(=O)OCCCCCC(CCCCCOC(=O)CN(C)C(=O)C(CCCCCC)CCCCCCCC)N(C)CCO (stereo not shown) [lipid 24, 11-((N-(2-Hexyldecanoyl)-N-methylglycyl)oxy)-6-((2-hydroxyethyl)(methyl)amino)-undecyl 2-hexyldecanoate] | higher
CCCCCCCCC(CCCCCC)C(=O)OCCCCCC(CCCCCOC(=O)CN(C)C(=O)CC(CCCCCCC)CCCCCCC)N(C)CCCCO (stereo not shown) [lipid 25, 11-((N-(3-Heptyldecanoyl)-N-methylglycyl)oxy)-6-((4-hydroxybutyl)(methyl)amino)-undecyl 2-hexyldecanoate] | higher
CCCCCCCCC(CCCCCC)CC(=O)N(C)CC(=O)OCCCCCC(CCCCCOC(=O)C(CCCCCC)CCCCCCCC)N(C)CCCCO (stereo not shown) [lipid 27, 11-((N-(3-Hexylundecanoyl)-N-methylglycyl)oxy)-6-((4-hydroxybutyl)(methyl)-amino)-undecyl 2-hexyldecanoate] | higher
CCCCCCCCCC(=O)OCCCCCC(CCCCCOC(=O)CN(C)C(=O)CC(CCCCCC)CCCCCCCC)N(C)CCCCO (stereo not shown) [lipid 33, 11-((N-(3-Hexylundecanoyl)-N-methylglycyl)oxy)-6-((4-hydroxybutyl)(methyl)-amino)-undecyl decanoate] | higher
CCCCCCCCC(CCCCCC)C(=O)OCCCCCC(CCCCCO)N(C)CCCCOC(=O)CN(C)C(=O)C(CCCCCC)CCCCCCCC (stereo not shown) [lipid 36, 6-((4-((N-(2-Hexyldecanoyl)-N-methylglycyl)oxy)butyl)(methyl)amino)-11-hydroxy-undecyl 2-hexyldecanoate] | higher

Test system: not given
Assay: not given
Conditions: delivery of siRNA; background statement; cited from earlier work

SMILES | siRNA required compared with KC2
CCCCC/C=C\C/C=C\CCCCCCCCC(CCCCCCCC/C=C\C/C=C\CCCCC)OC(=O)CCCN(C)C [lipid 1] | about 3 times less
